Several values for one entry are separate records, joined by “and”; a condition that tells them apart may be missing. Equal entries are not always repeated. Toxic doses and inconclusive results are not listed. Rule as the data show it: active = T/C of 150% or more; inactive = T/C below 125%.
Test system: L1210 leukemia ip in BDF1 mice, survival T/C
Assay: NCI In Vivo Anticancer Drug Screen. Data for tumor model L1210 Leukemia (intraperitoneal) in B6D2F1 (BDF1) mice
Conditions: endpoint: mean survival time, higher = longer survival
Method in brief: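 In this screen, tumor-bearing mice given compound are compared to those given vehicle, and their survival values are reported as a treated-to-control quotient.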

[1] = dose: 100.0 mg/kg/injection, schedule: Q01DX001 (ip), vehicle: saline
[2] = dose: 200.0 mg/kg/injection, schedule: Q01DX001 (ip), vehicle: saline
[3] = dose: 400.0 mg/kg/injection, schedule: Q01DX001 (ip), vehicle: saline
[4] = dose: 100.0 mg/kg/injection, schedule: Q01DX009 (ip), vehicle: saline with Tween-80
[5] = dose: 100.0 mg/kg/injection, schedule: Q04DX003 (ip), vehicle: saline with Tween-80
[6] = dose: 200.0 mg/kg/injection, schedule: Q01DX009 (ip), vehicle: saline with Tween-80
[7] = dose: 200.0 mg/kg/injection, schedule: Q04DX003 (ip), vehicle: saline with Tween-80
[8] = dose: 400.0 mg/kg/injection, schedule: Q04DX003 (ip), vehicle: saline with Tween-80
[9] = dose: 100.0 mg/kg/injection, schedule: Q04DX003 (ip), vehicle: saline
[10] = dose: 400.0 mg/kg/injection, schedule: Q01DX009 (ip), vehicle: saline with Tween-80
[11] = dose: 25.0 mg/kg/injection, schedule: Q01DX009 (ip), vehicle: Klucel (hydroxypropylcellulose) (HPC)
[12] = dose: 100.0 mg/kg/injection, schedule: Q04DX003 (ip), vehicle: Klucel (hydroxypropylcellulose) (HPC)
[13] = dose: 100.0 mg/kg/injection, schedule: Q01DX001 (ip), vehicle: carboxymethylcellulose (CMC)
[14] = dose: 200.0 mg/kg/injection, schedule: Q01DX001 (ip), vehicle: carboxymethylcellulose (CMC)
[15] = dose: 200.0 mg/kg/injection, schedule: Q04DX003 (ip), vehicle: Klucel (hydroxypropylcellulose) (HPC)
[16] = dose: 400.0 mg/kg/injection, schedule: Q01DX001 (ip), vehicle: carboxymethylcellulose (CMC)
[17] = dose: 400.0 mg/kg/injection, schedule: Q04DX003 (ip), vehicle: Klucel (hydroxypropylcellulose) (HPC)

Measured: T/C

CCC(C(=O)OC)C(=O)c1ccccc1 (centres undefined)
inactive: dose: 50.0 mg/kg/injection, schedule: Q01DX001 (ip), vehicle: saline 107 % of control | [1] 102 % of control | [2] 107 % of control | [3] 96 % of control

CC(=N\O)/C(=N\O)C(=O)c1ccccc1
inactive: [4] 110 % of control | [5] 96 % of control | [6] 95 % of control | [7] 101 % of control | [8] 98 % of control

Cc1ccc(C(C)C)c(OC(=O)Nc2cc(Cl)ccc2C)c1
inactive: dose: 100.0 mg/kg/injection, schedule: Q01DX001 (ip), vehicle: saline with Tween-80 98 % of control | [4] 100 % of control and 102 % of control | dose: 100.0 mg/kg/injection, schedule: Q04DX002 (ip), vehicle: saline with Tween-80 87 % of control and 88 % of control | [9] 92 % of control | dose: 200.0 mg/kg/injection, schedule: Q01DX001 (ip), vehicle: saline with Tween-80 95 % of control | [6] 102 % of control and 113 % of control | dose: 200.0 mg/kg/injection, schedule: Q04DX002 (ip), vehicle: saline with Tween-80 102 % of control and 89 % of control | dose: 200.0 mg/kg/injection, schedule: Q04DX003 (ip), vehicle: saline 92 % of control | dose: 400.0 mg/kg/injection, schedule: Q01DX001 (ip), vehicle: saline with Tween-80 93 % of control | [10] 100 % of control and 89 % of control | dose: 400.0 mg/kg/injection, schedule: Q04DX002 (ip), vehicle: saline with Tween-80 89 % of control and 91 % of control | dose: 400.0 mg/kg/injection, schedule: Q04DX003 (ip), vehicle: saline 92 % of control

CC(C)CCS(=O)CCC(C)C
inactive: [4] 96 % of control | [5] 105 % of control | [6] 96 % of control | [7] 120 % of control | [10] 100 % of control | [8] 97 % of control

O=c1cc(/C=C/c2ccc3ccccc3n2)c2ccccc2[nH]1
inactive: [1] 98 % of control | [2] 96 % of control | [3] 102 % of control

COc1ccc(-c2nc(N)nc3c2CN(CCC(=O)O)C3=O)cc1
inactive: [1] 100 % of control | [2] 95 % of control | [3] 94 % of control

Cc1cc(OCCOC(=O)Nc2ccc(C)c([N+](=O)[O-])c2)ccc1Cl
inactive: dose: 50.0 mg/kg/injection, schedule: Q01DX009 (ip), vehicle: saline with Tween-80 93 % of control | [4] 87 % of control | [6] 87 % of control

COC(=O)C1CN=NC1C(=O)OC (centres undefined)
inactive: dose: 100.0 mg/kg/injection, schedule: Q04DX003 (ip), vehicle: acetone 98 % of control | dose: 200.0 mg/kg/injection, schedule: Q04DX003 (ip), vehicle: acetone 96 % of control | dose: 400.0 mg/kg/injection, schedule: Q04DX003 (ip), vehicle: acetone 101 % of control

C/C=C/Sc1ccccc1
inactive: dose: 75.0 mg/kg/injection, schedule: Q01DX001 (ip), vehicle: carboxymethylcellulose (CMC) 95 % of control | dose: 150.0 mg/kg/injection, schedule: Q01DX001 (ip), vehicle: carboxymethylcellulose (CMC) 101 % of control | dose: 300.0 mg/kg/injection, schedule: Q01DX001 (ip), vehicle: carboxymethylcellulose (CMC) 98 % of control

O=C(OCC1CC1)c1ccc(N=Nc2ccccc2)cc1
inactive: dose: 75.0 mg/kg/injection, schedule: Q04DX002 (ip), vehicle: Klucel (hydroxypropylcellulose) (HPC) 102 % of control | dose: 150.0 mg/kg/injection, schedule: Q04DX002 (ip), vehicle: Klucel (hydroxypropylcellulose) (HPC) 108 % of control | dose: 300.0 mg/kg/injection, schedule: Q04DX002 (ip), vehicle: Klucel (hydroxypropylcellulose) (HPC) 105 % of control

CCCCB1OCCCO1
inactive: dose: 100.0 mg/kg/injection, schedule: Q01DX001 (ip), vehicle: Klucel (hydroxypropylcellulose) (HPC) 98 % of control | dose: 200.0 mg/kg/injection, schedule: Q01DX001 (ip), vehicle: Klucel (hydroxypropylcellulose) (HPC) 88 % of control | dose: 400.0 mg/kg/injection, schedule: Q01DX001 (ip), vehicle: Klucel (hydroxypropylcellulose) (HPC) 92 % of control

CC(C)(C)C1CCC(NC(=O)C(Cl)Cl)CC1 (centres undefined)
inactive: [11] 100 % of control | dose: 25.0 mg/kg/injection, schedule: Q04DX003 (ip), vehicle: Klucel (hydroxypropylcellulose) (HPC) 97 % of control | dose: 50.0 mg/kg/injection, schedule: Q01DX009 (ip), vehicle: Klucel (hydroxypropylcellulose) (HPC) 94 % of control | dose: 50.0 mg/kg/injection, schedule: Q04DX003 (ip), vehicle: Klucel (hydroxypropylcellulose) (HPC) 100 % of control | dose: 100.0 mg/kg/injection, schedule: Q01DX009 (ip), vehicle: Klucel (hydroxypropylcellulose) (HPC) 96 % of control | [12] 90 % of control and 92 % of control

O=C(CC(c1ccccc1)C(C(CC(=O)c1ccccc1)c1ccccc1)[N+](=O)[O-])c1ccccc1 (centres undefined)
inactive: [13] 92 % of control | [12] 87 % of control | [14] 95 % of control | [15] 89 % of control | [16] 92 % of control | [17] 86 % of control

C=C1C(=O)OC2C3OC(C)(CCC(O)C3COC(C)=O)CC(OC(=O)/C(=C/C)COC(C)=O)C12 (centres undefined)
inactive: dose: 6.25 mg/kg/injection, schedule: Q01DX009 (ip), vehicle: Klucel (hydroxypropylcellulose) (HPC) 100 % of control | dose: 12.5 mg/kg/injection, schedule: Q01DX009 (ip), vehicle: Klucel (hydroxypropylcellulose) (HPC) 97 % of control | [11] 103 % of control

CC1(O)C=Cc2ccccc21 (centres undefined)
inactive: [5] 100 % of control | [7] 95 % of control

COC(=O)CCC(=O)/C=C1/Nc2ccccc2C1=O
inactive: [5] 92 % of control | [7] 95 % of control | [8] 90 % of control

CC(=O)Nc1cccc(OCCOc2ccc([N+](=O)[O-])cc2)c1
inactive: [13] 92 % of control | [14] 92 % of control | [16] 90 % of control

CCOP(=O)(OCC)c1ccc([N+](=O)[O-])cc1
inactive: [1] 87 % of control | [2] 89 % of control

CCOC(=O)c1c[nH]c2cc(OC)ccc2c1=O
inactive: [4] 92 % of control | [6] 93 % of control

C=C(Cl)COCC1CO1 (centres undefined)
inactive: dose: 44.0 mg/kg/injection, schedule: Q01DX Z (ip), vehicle: saline 92 % of control | dose: 66.0 mg/kg/injection, schedule: Q01DX Z (ip), vehicle: saline 110 % of control | dose: 100.0 mg/kg/injection, schedule: Q01DX Z (ip), vehicle: saline 94 % of control

CC(=O)Cc1nc(N)nc(Nc2ccc(Cl)c(Cl)c2)n1
inactive: [5] 91 % of control | [7] 96 % of control | [8] 96 % of control

Nc1cccc(C(=O)Nc2ccc(S(=O)(=O)F)cc2)c1
inactive: [1] 107 % of control | [2] 106 % of control | [3] 112 % of control

CN(C)CCCN1CCC2(CC[C@H]3CCCC[C@@H]3C2)CC1
inactive: dose: 9.0 mg/kg/injection, schedule: Q01DX015 (ip), vehicle: saline 91 % of control | dose: 18.0 mg/kg/injection, schedule: Q01DX015 (ip), vehicle: saline 97 % of control | dose: 25.0 mg/kg/injection, schedule: Q01DX009 (ip), vehicle: saline 101 % of control | dose: 25.0 mg/kg/injection, schedule: Q04DX003 (ip), vehicle: saline 90 % of control | dose: 36.0 mg/kg/injection, schedule: Q01DX015 (ip), vehicle: saline 101 % of control | dose: 50.0 mg/kg/injection, schedule: Q01DX009 (ip), vehicle: saline 101 % of control | dose: 50.0 mg/kg/injection, schedule: Q04DX003 (ip), vehicle: saline 93 % of control | dose: 72.0 mg/kg/injection, schedule: Q01DX015 (ip), vehicle: saline 114 % of control | dose: 100.0 mg/kg/injection, schedule: Q01DX009 (ip), vehicle: saline 109 % of control | [9] 104 % of control

N#CC(=C1c2ccccc2-c2ccccc21)c1ccccc1
inactive: [12] 100 % of control | [15] 105 % of control | [17] 98 % of control

NC1=NC(=O)NC1(c1ccccc1)c1ccccc1
inactive: dose: 50.0 mg/kg/injection, schedule: Q01DX001 (ip), vehicle: carboxymethylcellulose (CMC) 94 % of control | [13] 100 % of control | [14] 89 % of control | [16] 116 % of control

[O]=[Sb]([OH])([c]1ccc(Cl)cc1)[c]1ccc(Cl)cc1
inactive: dose: 75.0 mg/kg/injection, schedule: Q01DX001 (ip), vehicle: saline 116 % of control

COC(=O)C1=C(c2ccncc2)c2cccc3cccc1c23
inactive: dose: 100.0 mg/kg/injection, schedule: Q04DX003 (ip), vehicle: alcohol 94 % of control | dose: 200.0 mg/kg/injection, schedule: Q04DX003 (ip), vehicle: alcohol 102 % of control

From PubChem BioAssay AID248 (DTP/NCI, 2004)
